Where two headings read alike, the source gives them in different places.
What was measured:
[1] = biological target: muscarinic acetylcholine receptors; assay: inhibition of specific binding of 3H-Oxotremorine-M (3H-Oxo) to rat cortex; design: species or system rat (male Wistar); details: 3H-Oxotremorine 1.0 nM, 30 min, 25° C., pH 7.4
Source text: The pharmacological properties of the compounds of the invention can be illustrated by determining their capability to inhibit the specific binding of ^3 H-Oxotremorine-M (^3 H-Oxo). Birdsdall N. J. M., Hulme E. C., and Burgen A. S. V. (1980). "The Character of Muscarinic Receptors in Different Regions of the Rat Brain". Proc. Roy. Soc. London (Series B) 207,1.
^3 H-oxo labels muscarinic receptor in the CNS (with a preference for agonist domains of the receptors). Three different sites are labeled by ^3 H-Oxo. […] Using the present experimental conditions only the high and medium affinity sites are determined.
The inhibitory effects of compounds on ^3 H-oxo binding reflects the affinity for muscarinic acetylcholine receptors.
All preparations are performed at 0°-4° C. unless otherwise indicated. Fresh cortex (0.1-1 g) from male Wistar rats (150-250 g) is homogenized for 5-10 s in 10 mL […] Hepes pH: 7.4, with an Ultra-Turrax homogenizer. The homogenizer is rinsed with 10 mL of buffer and the combined suspension centrifuged for 15 min. at 40,000×g. The pellet is washed three times with buffer. In each step the pellet is homogenized as before in 2×10 mL of buffer and centrifuged for 10 min. at 40,000×g.
The final pellet is homogenized in 20 mM Hepes pH: 7.4 (100 mL per g of original tissue) and used for binding assay. Aliquots of 0.5 mL is added 25 μL of test solution and 25 μL of ^3 H-Oxotremorine (1.0 nM, final concentration) mixed and incubated for 30 min. at 25° C. Non-specific binding is determined in triplicate using arecoline (1 μg/mL, final concentration) as the test substance. After incubation samples are added 5 mL of ice-cold buffer and poured directly onto Whatman GF/C glass fiber filters under suction and immediately washed 2 times with 5 mL of ice-cold buffer. The amount of radioactivity on the filters are determined by conventional liquid scintillation counting. Specific binding is total binding minus non specific binding.
Test substances are dissolved in 10 mL water (if necessary heated on a steam-bath for less than 5 min.) at a concentration of 2.2 mg/mL. 25-75% inhibition of specific binding must be obtained before calculation of IC50. The test value will be given as IC50 (the concentration (nM) of the test substance which inhibits the specific binding of ^3 H-oxo by 50%). IC50 =(applied test substance concentration) x([…])nM where Co is specific binding in control assays and Cx is the specific binding in the test assay. (The calculations assume normal mass-action kinetics).

[2] = biological target: muscarinic receptor in the CNS; details: read-out: affinity of site labeled by ^3 H-Oxo, cited from earlier work

Compound	IC50 [1]	other results
CCCCCCOc1nsnc1C1CC2CCC1N(C)C2 (single isomer, unassigned) [Compound 8, EXO 2-Aza-6-(4-hexyloxy-1,2,5-thiadiaz-3-yl)-2-methyl-bicyclo[2.2.2]octane]	277 nM	–
CC(C)CCCSc1nsnc1C1CC2CCC1NC2 (stereo not drawn) [Compound 18, ENDO 2-Aza-6-(4-((4-methylpentyl)thio)-1,2,5-thiadiaz-3-yl)-bicyclo[2.2.2]octane]	17 nM	–
FC(F)(F)CCCSc1nsnc1C1CC2CCC1NC2 (stereo not drawn) [Compound 20, ENDO 2-Aza-6-(4-((4,4,4-trifluorobutyl)thio)-1,2,5-thiadiaz-3-yl)-bicyclo[2.2.2]octane]	4.8 nM	–
N#Cc1ccc(CSc2nsnc2C2CC3CCC2NC3)s1 (stereo not drawn) [Compound 25, ENDO 2-Aza-6-(4-((5-cyanothien-2-yl)methylthio)-1,2,5-thiadiaz-3-yl)-bicyclo[2.2.2]octane]	5.4 nM	–
FC(F)(F)c1ccc(COc2nsnc2C2CC3CCC2NC3)cc1 (stereo not drawn) [Compound 32, EXO 2-Aza-6-(4-((4-trifluoromethylphenyl)methoxy)-1,2,5-thiadiaz-3-yl)-bicyclo[2.2.2]octane]	335 nM	–
CCCCCOc1nsnc1C1CC2CCC1NC2 (stereo not drawn) [Compound 31, EXO 2-aza-6-(4-pentoxy-1,2,5-thiadiaz-3-yl)-bicyclo[2.2.2]octane]	161 nM	–
CCCCCOc1nsnc1C1CC2CCC1NC2 (stereo not drawn) [Compound 30, ENDO 2-aza-6-(4-pentoxy-1,2,5-thiadiaz-3-yl)-bicyclo[2.2.2]octane]	5.9 nM	–
FC(F)(F)c1ccc(COc2nsnc2C2CC3CCC2NC3)cc1 (stereo not drawn) [Compound 33, EXO 2-Aza-6-(4-((4-trifluoromethylphenyl)methoxy)-1,2,5-thiadiaz-3-yl)-bicyclo[2.2.2]octane]	208 nM	–
CCCCCCSc1nsnc1C1CC2CCC1NC2 (stereo not drawn) [Compound 28, EXO 2-Aza-6-(4-hexylthio-1,2,5-thiadiaz-3-yl)-bicyclo[2.2.2]octane]	86 nM	–
CCCCCCSc1nsnc1C1CC2CCC1NC2 (stereo not drawn) [Compound 27, EXO 2-Aza-6-(4-hexylthio-1,2,5-thiadiaz-3-yl)-bicyclo[2.2.2]octane]	3 nM	–
CCCCCCOc1nsnc1C1CC2CCC1N(C)C2 (single isomer, unassigned) [Compound 7, ENDO 2-Aza-6-(4-hexyloxy-1,2,5-thiadiaz-3-yl)-2-methyl-bicyclo[2.2.2]octane]	4.8 nM	–
CC(C)CCCSc1nsnc1C1CC2CCC1NC2 (stereo not drawn) [Compound 17, EXO 2-Aza-6-(4-((4-methylpentyl)thio)-1,2,5-thiadiaz-3-yl)-bicyclo[2.2.2]octane]	612 nM	–
FC(F)(F)c1ccc(CSc2nsnc2C2CC3CCC2NC3)cc1 (stereo not drawn) [Compound 22, EXO 2-Aza-6-(4-(((4-trifluoromethyl)phenyl)methylthio)-1,2,5-thiadiaz-3-yl)-bicyclo[2.2.2]octane]	680 nM	–
C[N+](C)(C)CC#CCN1CCCC1=O [^3 H-Oxo, ^3 H-Oxotremorine-M]	–	Kd ([2]; first of three sites (high affinity)): 1.8 nM; Kd ([2]; second of three sites (medium affinity)): 20 nM; Kd ([2]; third of three sites, not determined under the present experimental conditions): 3000 nM
N#Cc1ccc(CSc2nsnc2C2CC3CCC2NC3)s1 (stereo not drawn) [Compound 26, EXO 2-Aza-6-(4-((5-cyanothien-2-yl)methylthio)-1,2,5-thiadiaz-3-yl)-bicyclo[2.2.2]octane]	31 nM	–
